± gives the uncertainty stated by the source.
Assay: xn = mol fraction of the nth substance listed

FC(F)(F)C(F)(F)Cl + FC(F)Cl
Settings	viscosity [mPa·s]
298.15 K, 101 kPa, x2 = 0.63	0.16 ± 0.02

Clc1cccc(Cl)c1 + Nc1cccc(Cl)c1
viscosity [mPa·s], 100 kPa
Settings	x2 = 0.1079	x2 = 0.2255	x2 = 0.3102	x2 = 0.4128	x2 = 0.5135	x2 = 0.6122	x2 = 0.7094	x2 = 0.8047	x2 = 0.8908
303.15 K	1.313 ± 0.011	1.712 ± 0.013	1.998 ± 0.015	2.341 ± 0.017	2.675 ± 0.019	2.999 ± 0.021	3.318 ± 0.024	3.627 ± 0.026	3.905 ± 0.028
308.15 K	1.225 ± 0.01	1.581 ± 0.012	1.836 ± 0.014	2.142 ± 0.016	2.439 ± 0.018	2.729 ± 0.02	3.012 ± 0.022	3.286 ± 0.024	3.532 ± 0.026
313.15 K	1.141 ± 0.01	1.455 ± 0.012	1.678 ± 0.013	1.946 ± 0.015	2.208 ± 0.017	2.462 ± 0.019	2.708 ± 0.021	2.946 ± 0.023	3.162 ± 0.024
318.15 K	1.055 ± 0.01	1.326 ± 0.011	1.519 ± 0.013	1.752 ± 0.014	1.975 ± 0.016	2.193 ± 0.018	2.405 ± 0.019	2.611 ± 0.021	2.795 ± 0.023

CCOc1ccccc1 + Nc1ccccc1
viscosity [mPa·s], 101 kPa
Settings	x1 = 0.09206	x1 = 0.1748	x1 = 0.2667	x1 = 0.3716	x1 = 0.4789	x1 = 0.5934	x1 = 0.7132	x1 = 0.8542
293.35 K	3.64 ± 0.04	3.17 ± 0.04	2.75 ± 0.03	2.39 ± 0.03	2.1 ± 0.02	1.84 ± 0.019	1.63 ± 0.017	1.428 ± 0.014
302.75 K	2.7 ± 0.03	2.38 ± 0.03	2.115 ± 0.022	1.87 ± 0.019	1.67 ± 0.017	1.495 ± 0.015	1.335 ± 0.013	1.169 ± 0.012
313.15 K	2.08 ± 0.02	1.865 ± 0.018	1.675 ± 0.016	1.5 ± 0.015	1.355 ± 0.013	1.225 ± 0.012	1.106 ± 0.011	0.982 ± 0.01

CC(=O)N(C(C)C)C(C)C + O
298.16 K, 101 kPa
Settings	viscosity [mPa·s]
x2 = 0.0812	2.4 ± 0.02
x2 = 0.2041	2.83 ± 0.03
x2 = 0.3933	3.61 ± 0.03
x2 = 0.5827	4.68 ± 0.04
x2 = 0.6893	5.21 ± 0.04
x2 = 0.7296	5.3 ± 0.04
x2 = 0.7747	5.26 ± 0.04
x2 = 0.8218	4.96 ± 0.04
x2 = 0.856	4.59 ± 0.04

CC(C)(C)N1CCCC1=O + O
298.16 K, 101 kPa
Settings	viscosity [mPa·s]
x1 = 0.1105	3.47 ± 0.03
x1 = 0.261	4.04 ± 0.03
x1 = 0.4035	4.76 ± 0.04
x1 = 0.5487	5.49 ± 0.04
x1 = 0.6233	5.79 ± 0.04
x1 = 0.6749	5.86 ± 0.04
x1 = 0.7189	5.81 ± 0.05
x1 = 0.7798	5.44 ± 0.05
x1 = 0.8652	4.22 ± 0.04

CC(C)[C@H](N)C(=O)[O-].[Na+] + O
viscosity [mPa·s], 101 kPa
Settings	x1 = 0.004484	x1 = 0.008927	x1 = 0.01333	x1 = 0.0177	x1 = 0.02202	x1 = 0.02631
293.15 K	1.165 ± 0.011	1.356 ± 0.012	1.571 ± 0.013	1.816 ± 0.014	2.087 ± 0.016	2.385 ± 0.018
303.15 K	0.919 ± 0.011	1.057 ± 0.011	1.214 ± 0.012	1.382 ± 0.013	1.573 ± 0.014	1.786 ± 0.015
313.15 K	0.747 ± 0.01	0.85 ± 0.011	0.969 ± 0.011	1.094 ± 0.011	1.233 ± 0.012	1.387 ± 0.013
323.15 K	0.621 ± 0.01	0.702 ± 0.01	0.793 ± 0.01	0.889 ± 0.011	0.994 ± 0.011	1.11 ± 0.012

CCCC[P+](CC)(CCCC)CCCC.[Br-] + O
Settings	viscosity [mPa·s]
303.15 K, 101 kPa, x1 = 0.008931	1.225 ± 0.16

CCOC(C)=O + O
298.15 K, 101 kPa
Settings	viscosity [mPa·s]
x1 = 0.00139	0.9095 ± 0.0035
x1 = 0.001837	0.9129 ± 0.0035
x1 = 0.003766	0.9354 ± 0.0036
x1 = 0.006372	0.9652 ± 0.0036
x1 = 0.006895	0.9678 ± 0.0036
x1 = 0.01022	1.004 ± 0.0036
x1 = 0.01327	1.036 ± 0.0037
x1 = 0.8902	0.4495 ± 0.0018
x1 = 0.9238	0.4395 ± 0.0017
x1 = 0.9579	0.4312 ± 0.0017

Cc1c[nH]c(=O)[nH]c1=O + O
viscosity [mPa·s], 101.3 kPa
Settings	293.15 K	298.15 K	303.15 K	308.15 K	313.15 K	318.15 K
x1 = 0.000119	1.006 ± 0.1	0.895 ± 0.09	0.803 ± 0.081	0.738 ± 0.074	0.623 ± 0.062	0.595 ± 0.06
x1 = 0.000164	–	0.893 ± 0.025	–	0.722 ± 0.024	–	0.598 ± 0.024
x1 = 0.0001877	1.008 ± 0.1	0.897 ± 0.09	0.805 ± 0.081	0.74 ± 0.074	0.625 ± 0.063	0.597 ± 0.06
x1 = 0.000266	–	0.895 ± 0.025	–	0.723 ± 0.024	–	0.6 ± 0.024
x1 = 0.0003006	1.01 ± 0.1	0.899 ± 0.09	0.807 ± 0.081	0.742 ± 0.074	0.627 ± 0.063	0.599 ± 0.06
x1 = 0.0003339	–	0.896 ± 0.025	–	0.724 ± 0.024	–	0.6 ± 0.024
x1 = 0.0003713	–	0.896 ± 0.025	–	0.724 ± 0.024	–	0.601 ± 0.024
x1 = 0.0003733	1.012 ± 0.1	0.901 ± 0.09	0.809 ± 0.081	0.744 ± 0.075	0.629 ± 0.063	0.601 ± 0.06
x1 = 0.0004194	–	0.897 ± 0.025	–	0.725 ± 0.024	–	0.601 ± 0.024
x1 = 0.0004572	1.014 ± 0.1	0.903 ± 0.091	0.811 ± 0.081	0.746 ± 0.075	0.631 ± 0.063	0.603 ± 0.06
x1 = 0.0004811	–	0.898 ± 0.025	–	0.726 ± 0.025	–	0.602 ± 0.024
x1 = 0.0005454	1.016 ± 0.1	0.905 ± 0.091	0.813 ± 0.082	0.748 ± 0.075	0.633 ± 0.063	0.605 ± 0.061

Nc1cc[nH]c(=O)n1 + O
viscosity [mPa·s], 101.3 kPa
Settings	x1 = 0.000131	x1 = 0.0001895	x1 = 0.0002822	x1 = 0.000457	x1 = 0.0004889	x1 = 0.0005591
298.15 K	0.892 ± 0.025	0.893 ± 0.025	0.894 ± 0.025	0.895 ± 0.025	0.896 ± 0.025	0.897 ± 0.025
308.15 K	0.721 ± 0.024	0.722 ± 0.024	0.722 ± 0.024	0.724 ± 0.025	0.724 ± 0.024	0.725 ± 0.025
318.15 K	0.598 ± 0.024	0.598 ± 0.024	0.599 ± 0.024	0.601 ± 0.024	0.601 ± 0.024	0.602 ± 0.024

O=C([O-])CC(O)(CC(=O)O)C(=O)O.[K+] + O
viscosity [mPa·s], 101 kPa
Settings	293.15 K	298.15 K	303.15 K	308.15 K
x1 = 0.0032	1.074 ± 0.014	0.954 ± 0.012	0.853 ± 0.011	0.766 ± 0.01
x1 = 0.0089	1.237 ± 0.016	1.089 ± 0.014	0.97 ± 0.013	0.876 ± 0.011
x1 = 0.0177	1.419 ± 0.018	1.253 ± 0.016	1.117 ± 0.014	1.002 ± 0.013

[O-][Cl+3]([O-])([O-])O[Cl+3]([O-])([O-])[O-] + O
293.15 K, 101.33 kPa
Settings	viscosity [mPa·s]
x1 = 0.428	1.179 ± 0.041
x1 = 0.46	0.949 ± 0.034
x1 = 0.474	0.893 ± 0.031
x1 = 0.491	0.821 ± 0.028
x1 = 0.499	0.796 ± 0.027
x1 = 0.51	0.762 ± 0.025
x1 = 0.519	0.754 ± 0.025
x1 = 0.602	0.726 ± 0.024
x1 = 0.711	0.714 ± 0.023
x1 = 0.787	0.713 ± 0.023
x1 = 0.818	0.709 ± 0.023
x1 = 0.906	0.708 ± 0.023

— the CheMixHub viscosity set
